The values below come from publication PMC10747453, “Perturbations in Osteogenic Cell Fate Following Exposure to Constituents Present in Tobacco: A Combinatorial Study” (Toxics, 2023).

Entries after “also recorded” stand apart in the source; their conditions may differ. Where a name gives a salt, the structure may show the parent alone. Read-outs that look alike come from different tables or passages of the source.

The test system of data set [1] is osteogenically differentiating human embryonic stem cells and fibroblasts. Briefly: hESTo biostatistical prediction model (embryotoxicity class). Particulars: for Embryotoxicity classification by the biostatistical model, in words: hESTo, skeletal differentiation. The source says:
(§1) Half-maximal inhibitory doses of cytotoxicity (IC50) and osteogenic differentiation (ID50) were taken from concentration–response curves generated in GraphPad Prism (9.2., GraphPad Software Inc., San Diego, CA, USA) with the “nonlinear regression” function). A biostatistical prediction model based on linear discriminant functions was employed to classify the test chemical into one out of three embryotoxicity categories (strong, weak, and non-embryotoxic). In double combination analyses, a t-test was performed comparing combination to single constituent ID50. For triple combination analyses, a one-way ANOVA with Dunnett’s multiple comparison test (single constituent vs. combination) using GraphPad Prism was conducted. A p-value below 0.05 was considered significant. Heatmaps for double and triple exposures were generated in GraphPad Prism 9.2. Calcium-to-MTT ratios were calculated in Microsoft Excel and imported to ClustVis to generate a principal-component-analysis-based clustered heatmap.
Half-maximal inhibitory concentrations for cell viability (IC50 hESC) and differentiation (ID50 Ca^2+ hESC) were established for penicillin G and all-trans retinoic acid from concentration–response curves. The hESTo then compares these two endpoints to the half-maximal inhibitory concentration for cell viability resulting from exposure of fibroblast cells to the same test compound (IC50 MTT hFF) (Figure 3).

Data set [2] deals with osteogenically differentiating H9 hESCs. Briefly: hESTo calcium assay, osteogenic differentiation of hESCs. In kind it is cell-based, human. Particulars: for IC50: Homo sapiens, 480 h, read-out: ID50 Ca2+ hESC (half-maximal inhibitory concentration of differentiation). The procedure:
Differentiation was induced from hESC cultures through the addition of a control differentiation medium (CDM) composed of DMEM, 15% FBS (Atlanta Biologicals, Flowery Branch, GA, USA), 1% (v/v) non-essential amino acids, 50 U/mL penicillin, 50 µg/mL streptomycin, and 0.1 mM β-mercaptoethanol. Five days after this initial medium change, CDM was supplemented with 1.2 × 10^−7 M 1,25α(OH)2 vitamin D3 (Calbiochem, Burlington, MA, USA), 0.1 mM β-glycerophosphate, and 20.8 µg/mL ascorbic acid.
(§2) Cells were cultured with concomitant chemical treatment in a double-blind, vehicle-controlled study. […] 241571), and urethane (Sigma Aldrich, cat. no. U2500) were purchased from the indicated companies. Stock solutions were made in DMEM or dimethylsulfoxide, depending on chemical solubility, sonicated when necessary, sterile filtered (0.1 µm), and stored at −20 °C. For liquids, concentrations were calculated from their density. Final dilutions were made in appropriate cell culture medium upon additional sonication of the stock after thawing. Chemical cell treatment started on day 0 of culture/differentiation and continued through day 20 in both H9 hESCs and hFF cells. Medium, including chemical dilutions, were made fresh and changed every other day. All exposures were performed in biological triplicate, each containing technical quintuplicates.
Quantification of calcium in the extracellular matrix of the cultures was performed using a calcium assay normalized to protein content. First, cells were lysed with radio-immunoprecipitation buffer (1% NP40, 0.5% sodium deoxycholate, 0.1% sodium dodecyl sulfate in PBS) on day 20 of cellular differentiation. The remaining matrix was dissolved with 1 N HCl and collected. Both lysates were assayed with Arsenazo III (Genzyme), and absorbance was measured at 655 nm (iMark microplate reader; Bio-Rad Laboratories, Hercules, CA, USA). Absorbances were compared to a CaCl2 standard, and total calcium content was normalized to the total protein content of the sample determined by a Lowry assay, measured against a bovine serum albumin standard curve. The Lowry assay was read at 750 nm (iMark microplate reader; Bio-Rad Laboratories) after a 15 min micro-shake incubation. Calculation of final normalized calcium content was performed according to a previously published formula [33].
as §1

In data set [3] the test system is human foreskin fibroblasts (hFF-1). In words: hESTo MTT assay, fibroblast viability. To be noted: for IC50: Homo sapiens, HFF-1, read-out: IC50 MTT hFF. The procedure: Human embryonic stem cells of the line H9 (WiCell) were seeded on Matrigel-coated culture plates and cultured in mTeSR1 medium (Stem Cell Technologies, Seattle, WA, USA) at 37 °C with 5% CO2. Approximately every four days, colonies were treated with accutase for 2–4 min at room temperature to dislodge colonies from the plastic and passaged into fresh Matrigel-coated wells. Human foreskin fibroblasts (hFF-1, American Type Culture Collection, Manassas, VA, USA, cat.no. SCRC-1041), were cultured on 0.1% gelatin-coated 6-well plates in Dulbecco’s Modified Eagle Medium (DMEM) with 10% fetal bovine serum, 1% (v/v) non-essential amino acids, 50 U/mL penicillin, and 50 µg/mL streptomycin at 37 °C in a controlled humidified 5% CO2 incubator. Upon 70% confluency, hFFs were passaged at a 1:6 ratio using phosphate-buffered saline (PBS) washes and 2.5% Trypsin/EDTA every two to four days. While in culture, all cells were routinely checked for bacterial, yeast, and microbial contamination using an inverted microscope and tested for mycoplasma using a PCR-based detection kit (abcam, Fremont, CA, USA, ab289834).
as §2
(§3) Viability response to constituent exposure was determined by 3-[4,5-dimethylthiazol-2yl]-2,5-diphenylterazolium bromide (MTT) assay. Cells were incubated with MTT (5 mg/mL) at 37 °C for 2 h. Following incubation, the supernatant was removed and replaced with 0.04 mol/L HCl in isopropanol. The plate was placed on a shaker for 15 min to dissolve aggregates. The optical density of the solution was read at 595 nm (iMark microplate reader; BioRad).
as §1
For orientation: Tetrazolium dyes change colour on reduction, which living cells bring about.

Data set [4] can be described thus: hESTo MTT assay, hESC viability. To be noted: human. The procedure: (§4) Cells were cultured with concomitant chemical treatment in a double-blind, vehicle-controlled study. […] U2500) were purchased from the indicated companies. […] For liquids, concentrations were calculated from their density. Final dilutions were made in appropriate cell culture medium upon additional sonication of the stock after thawing. Chemical cell treatment started on day 0 of culture/differentiation and continued through day 20 in both H9 hESCs and hFF cells. Medium, including chemical dilutions, were made fresh and changed every other day. All exposures were performed in biological triplicate, each containing technical quintuplicates.
as §3, §1

Data set [5] has as its system H9 hESCs. Briefly: hESTo MTT assay, hESC viability. As for the experimental part:
as §4, §3, §1

The conditions of data set [6]: human.
Experimental: (C) Table listing IC50 and ID50 values, calculated via GraphPad Prism and expressed as µg/mL, embryotoxicity classes calculated according to Genschow et al. [24], and content per cigarette (cig) or gram tobacco as well as actual and calculated plasma concentrations assuming a plasma volume of 3000 mL. […] ID50 = half-maximal inhibitory concentration of differentiation. IC50 = half-maximal concentration of cytotoxicity. hESC, human embryonic stem cell; hFF, human foreskin fibroblast; ND, not determined from the literature [37, 38, 39, 40, 41, 42, 43, 44, 45, 46, 47, 48, 49].
For data set [7], the system named is cultured rat embryos. The arrangement: method as in PMID 8079346. Particulars: cited from earlier work.
The conditions of data set [8]: in vivo; cited from earlier work.
The test system of data set [9] is other aquatic species. Particulars: cited from earlier work.
Setting [10] is: H9 hESC, exposure day 0 through day 20, calcium normalized to protein.

For the molecule `CC=O` [Acetaldehyde], the “Embryotoxicity classification by the biostatistical model, in words” value (from here on “Embryotoxicity classification”) in data set [1] is “strongly developmentally osteotoxic”.

Regarding `C=CC=O` [Acrolein, acrolein], the “Embryotoxicity classification” value in [1] is given as “strongly developmentally osteotoxic”.

For the molecule `C=CC(N)=O` [Acrylamide, acrylamide], the “Embryotoxicity classification” value in data set [1] is recorded as “non-embryotoxic”. For the same molecule, the “Effect on H9 hESC differentiation potential / calcification, in words” value in data set [2] is “caused reductions in cell viability as well as calcification but in very high concentration ranges”.

For `CC1=C(/C=C/C(C)=C/C=C/C(C)=C/C(=O)O)C(C)(C)CCC1` [All-trans retinoic acid, all-trans retinoic acid, reference compound], the IC50 in [3] came out at 0.061 µg/mL. Further, the IC50 at 20 days in data set [4] is 0.036 µg/mL.

On to `c1ccc2cc3c(ccc4ccccc43)cc2c1` [Benz[a]anthracene, benz[a]anthracene], for which the “Embryotoxicity classification” value in [1] is reported as “non-embryotoxic”. In addition, the “ID50 Ca2+ hESC (half-maximal inhibitory concentration of differentiation)” value in data set [2] (setting [10]) is reported as 239.5 µg/mL. For the same molecule, the “Effect on hFF cell viability, in words” value in data set [3] (tested concentration range up to 1000 µg/mL) is “did not produce a change in cell viability”. Besides, the “IC50 MTT hESC (half-maximal concentration of cytotoxicity)” value in [5] (H9 hESC, exposure day 0 through day 20) is given as 337.3 µg/mL.

With `c1ccc2c(c1)cc1ccc3cccc4ccc2c1c34` [Benzo[a]pyrene, benzo[a]pyrene], the IC50 in [2] (setting [10]) turned out to be 2.11 ± 0.65 µg/mL; in data set [3] it was 1020 ± 653 µg/mL. For the same molecule, the Calculated plasma concentration in data set [6] is 0.000036 µg/mL. Besides, the IC50 at 20 days in data set [4] is 52.9 ± 428 µg/mL.

For the molecule `c1ccc2c(c1)-c1cccc3c1c-2cc1ccccc13` [Benzo[b]fluoranthene, benzo[b]fluoranthene], the “Embryotoxicity classification” value in [1] is on record as “neither chemical classified as developmentally osteotoxic”. Also, the figures for the IC50 in data set [2] (setting [10]) and in data set [3] were 25.8 ± 7.24 µg/mL and 110 ± 76.1 µg/mL, respectively. Further, the IC50 at 20 days in [4] was 61 ± 14.8 µg/mL.

`Oc1ccccc1O` [Catechol, catechol]: the “Embryotoxicity classification” value in data set [1] is given as “strongly embryotoxic; also recorded: strongly developmentally osteotoxic”. Further, the IC50 in data set [2] was found to be 0.258 ± 0.166 µg/mL. Also, the “hESC differentiation endpoint relative to solvent control” value in data set [2] (around 0.882 µg/mL) is “below 25%”. Further, the Half-maximal lethality in data set [7] is 50 to 100 µM. Further, in data set [3], the “Concentration above which hFF cell viability changed” value is on record as “above 0.882 µg/mL” and the IC50 was 9.29 ± 1.71 µg/mL. Further, the IC50 at 20 days in data set [4] is 0.071 ± 0.023 µg/mL. For the same molecule, in data set [5] (around 0.882 µg/mL), the “hESC cytotoxicity endpoint relative to solvent control” value is “below 25%”.

As for `CN1C(=O)CC[C@H]1c1cccnc1` [Cotinine, cotinine], the “Embryotoxicity classification” value in data set [1] was “non-embryotoxic”. For the same molecule, the IC50 in data set [2] (setting [10]) was 272 ± 82.8 µg/mL; in [3], 497 ± 139 µg/mL. In [8], the Approx. plasma concentration was 0.068 to 0.3 µg/mL. Besides, in data set [4], the IC50 at 20 days worked out at 341 ± 72.9 µg/mL.

Consider `O=c1ccc2ccccc2o1` [Coumarin, coumarin], for which the “Embryotoxicity classification” value in data set [1] is “strongly developmentally osteotoxic”. Besides, the IC50 was 0.024 ± 0.009 µg/mL in [2] (setting [10]) and 0.114 µg/mL in data set [3]. Besides, in data set [4], the IC50 at 20 days was 0.013 µg/mL.

`CN1CCC(c2cccnc2)C1` (stereo not drawn) [Isonicotine, isonicotine]: in data set [1], the “Embryotoxicity classification” value is “neither chemical classified as developmentally osteotoxic”.

`CN1CCC[C@H]1c1cccnc1` [Nicotine, nicotine]: the “Embryotoxicity classification” value in data set [1] is listed as “non-embryotoxic”. In addition, the IC50 in data set [2] (setting [10]) is 633 ± 2350 µg/mL; in [3], greater than 1000 µg/mL. Further, the “Effect on H9 hESC differentiation potential / calcification, in words” value in data set [2] (all tested concentration ranges) was “a decrease in calcification was seen in the higher concentrations”. For the same molecule, the IC50 at 20 days in data set [4] was greater than 1000 µg/mL.

With `CC1(C)S[C@@H]2[C@H](NC(=O)Cc3ccccc3)C(=O)N2[C@H]1C(=O)O` [Penicillin G, penicillin G sodium salt, reference compound], in [1] (biostatistical model of Genschow et al. from ID50 hESC, IC50 hESC, IC50 hFF), the Embryotoxicity class entry is listed as “I”. In addition, the IC50 in data set [3] is greater than 1000 µg/mL. Besides, in data set [4], the IC50 at 20 days was greater than 1000 µg/mL.

With `c1ccc2ncccc2c1` [Quinoline, quinoline], the “Embryotoxicity classification” value in [1] is “weakly developmentally osteotoxic”. Also, the IC50 in data set [2] (setting [10]) stood at 2.27 ± 0.76 µg/mL; in [3], 59.4 ± 19.1 µg/mL. For the same molecule, in data set [6], the Calculated plasma concentration is 0.000045 µg/mL. The Median lethal dose in data set [9] is reported as 11 µg/mL. The IC50 at 20 days in data set [4] is 2.65 ± 0.51 µg/mL.

Regarding `CCOC(N)=O` [Urethane, urethane], the “Embryotoxicity classification” value in [1] is “non-embryotoxic”. The IC50 in [2] (setting [10]) and in [3] was greater than 1000 µg/mL throughout. For the same molecule, the IC50 at 20 days in data set [4] was greater than 1000 µg/mL.
